Data reported in the NIST ThermoML archive (doi:10.1021/je060139a).

Legend:
[1] = refractive index (Na D-line) (dimensionless); xn = mol fraction of the nth substance listed; details: 100.5 kPa, Liquid, Standard Abbe refractometry
[2] = xn = mol fraction of the nth substance listed; details: Wilhelmy plate method

CCC(=O)OCc1ccccc1 [benzyl propanoate] + CCO
Details | refractive index, 288.15 K | refractive index, 298.18 K | refractive index, 308.15 K | refractive index, 318.15 K | surface tension liquid-gas, 288.15 K [mN/m] | surface tension liquid-gas, 298.18 K [mN/m] | surface tension liquid-gas, 308.15 K [mN/m] | surface tension liquid-gas, 318.15 K [mN/m]
[1], x1 = 0.05 | 1.38108 | 1.37691 | 1.37266 | 1.36853 | – | – | – | –
[1], x1 = 0.1 | 1.39613 | 1.39185 | 1.38756 | 1.38322 | – | – | – | –
[1], x1 = 0.15 | 1.40891 | 1.40454 | 1.4002 | 1.39583 | – | – | – | –
[1], x1 = 0.2 | 1.42001 | 1.41559 | 1.41123 | 1.40687 | – | – | – | –
[1], x1 = 0.25 | 1.42966 | 1.42524 | 1.42091 | 1.41651 | – | – | – | –
[1], x1 = 0.3 | 1.43817 | 1.43375 | 1.42944 | 1.425 | – | – | – | –
[1], x1 = 0.35 | 1.44572 | 1.44128 | 1.43696 | 1.4325 | – | – | – | –
[1], x1 = 0.4 | 1.45248 | 1.44801 | 1.4437 | 1.43922 | – | – | – | –
[1], x1 = 0.45 | 1.45858 | 1.45408 | 1.44977 | 1.44524 | – | – | – | –
[1], x1 = 0.5 | 1.46414 | 1.45962 | 1.4553 | 1.45072 | – | – | – | –
[1], x1 = 0.55 | 1.46918 | 1.46464 | 1.46031 | 1.45569 | – | – | – | –
[1], x1 = 0.6 | 1.47384 | 1.46929 | 1.46494 | 1.46029 | – | – | – | –
[1], x1 = 0.65 | 1.47807 | 1.47352 | 1.46917 | 1.46451 | – | – | – | –
[1], x1 = 0.7 | 1.48193 | 1.47737 | 1.47302 | 1.46833 | – | – | – | –
[1], x1 = 0.75 | 1.48549 | 1.48092 | 1.47658 | 1.47188 | – | – | – | –
[1], x1 = 0.8 | 1.48877 | 1.48419 | 1.47986 | 1.47516 | – | – | – | –
[1], x1 = 0.85 | 1.49183 | 1.48725 | 1.48292 | 1.47824 | – | – | – | –
[1], x1 = 0.9 | 1.49464 | 1.49006 | 1.48574 | 1.48106 | – | – | – | –
[1], x1 = 0.95 | 1.49721 | 1.49265 | 1.48834 | 1.48366 | – | – | – | –
[1], x1 = 1 | 1.4995 | 1.49498 | 1.49074 | 1.48611 | – | – | – | –
[2], x1 = 0.05 | – | – | – | – | 24 | 23.2 | 22.3 | 21.34
[2], x1 = 0.1 | – | – | – | – | 24.8 | 24 | 23.1 | 22.1
[2], x1 = 0.15 | – | – | – | – | 25.5 | 24.64 | 23.7 | 22.7
[2], x1 = 0.2 | – | – | – | – | 26.13 | 25.25 | 24.3 | 23.3
[2], x1 = 0.25 | – | – | – | – | 26.7 | 25.78 | 24.82 | 23.8
[2], x1 = 0.3 | – | – | – | – | 27.23 | 26.3 | 25.32 | 24.3
[2], x1 = 0.35 | – | – | – | – | 27.76 | 26.8 | 25.8 | 24.78
[2], x1 = 0.4 | – | – | – | – | 28.3 | 27.31 | 26.3 | 25.28
[2], x1 = 0.45 | – | – | – | – | 28.85 | 27.84 | 26.82 | 25.78
[2], x1 = 0.5 | – | – | – | – | 29.4 | 28.36 | 27.33 | 26.28
[2], x1 = 0.55 | – | – | – | – | 29.95 | 28.89 | 27.85 | 26.78
[2], x1 = 0.6 | – | – | – | – | 30.5 | 29.43 | 28.37 | 27.28
[2], x1 = 0.65 | – | – | – | – | 31.06 | 29.97 | 28.88 | 27.78
[2], x1 = 0.7 | – | – | – | – | 31.62 | 30.52 | 29.4 | 28.3
[2], x1 = 0.75 | – | – | – | – | 32.23 | 31.1 | 29.96 | 28.83
[2], x1 = 0.8 | – | – | – | – | 32.88 | 31.7 | 30.55 | 29.4
[2], x1 = 0.85 | – | – | – | – | 33.7 | 32.5 | 31.3 | 30.1
[2], x1 = 0.9 | – | – | – | – | 34.5 | 33.3 | 32.1 | 30.9
[2], x1 = 0.95 | – | – | – | – | 35.2 | 34 | 32.8 | 31.6
[2], x1 = 1 | – | – | – | – | 36 | 34.8 | 33.6 | 32.4
